From PubChem BioAssay (NCI)
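All cell lines were grown in 96-well plates and treated with compound for 48 hours. GI50 is the concentration that inhibits growth by half. TGI: total growth inhibition.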

Tests used:
Assay in all cases: NCI tumour cell line growth inhibition, 48 h
SW-620 colon = system: SW-620 colon
HOP-62 NSCLC = system: HOP-62 NSCLC
SK-MEL-5 melanoma = system: SK-MEL-5 melanoma
HCC-2998 colon = system: HCC-2998 colon
HL-60(TB) leukemia = system: HL-60(TB) leukemia
DU-145 prostate = system: DU-145 prostate
OVCAR-3 ovarian = system: OVCAR-3 ovarian
NCI-H23 lung = system: NCI-H23 lung
UO-31 renal = system: UO-31 renal
SF-539 CNS = system: SF-539 CNS

Row | Compound | TGI (SW-620 colon) [µM] | TGI (HOP-62 NSCLC) [µM] | TGI (SK-MEL-5 melanoma) [µM] | TGI (HCC-2998 colon) [µM] | TGI (HL-60(TB) leukemia) [µM] | TGI (DU-145 prostate) [µM] | TGI (OVCAR-3 ovarian) [µM] | TGI (NCI-H23 lung) [µM] | TGI (UO-31 renal) [µM] | TGI (SF-539 CNS) [µM] | GI50 (SW-620 colon) [µM] | GI50 (HOP-62 NSCLC) [µM] | GI50 (SK-MEL-5 melanoma) [µM] | GI50 (HCC-2998 colon) [µM] | GI50 (HL-60(TB) leukemia) [µM] | GI50 (DU-145 prostate) [µM] | GI50 (OVCAR-3 ovarian) [µM] | GI50 (NCI-H23 lung) [µM] | GI50 (UO-31 renal) [µM] | GI50 (SF-539 CNS) [µM]
1 | N[C@@H](Cc1ccccc1)C(=O)N1CCC[C@@H]1P(=O)(Oc1ccccc1)Oc1ccccc1 | > 100 | > 100 | > 100 | > 100 | > 100 | > 100 | > 100 | > 100 | > 100 | > 100 | – | – | – | – | – | – | – | – | – | –
2 | O=[N+]([O-])C(=C(Nc1ccccc1)Nc1ccccc1)C(Cl)=C(Cl)Cl | 30.9 | 44.7 | 29.2 | 37.9 | 27.7 | 34.5 | 33.5 | 30 | 39.6 | 35.4 | – | – | – | – | – | – | – | – | – | –
3 | N#CC(C#N)=C1SC(=Nc2ccccc2)C(=Nc2ccccc2)N1c1ccccc1 | 11.5 | > 80.9 | 28.7 | > 72 | > 24.6 | > 100 | 6.04 | 97.7 | 25.3 | 22.5 | – | – | – | – | – | – | – | – | – | –
4 | Cc1cc(/N=C/c2ccc(N(C)C)cc2)n(-c2ccccc2)n1 | > 100 | > 100 | > 100 | 61.7 | > 100 | > 100 | 82.4 | > 100 | > 100 | > 100 | – | – | – | – | – | – | – | – | – | –
5 | CCOC(=O)c1cccc(N=Nc2nc[nH]c2/C=C/C(=O)OC)c1 | > 100 | > 100 | 36.9 | 28.2 | 53.4 | > 100 | > 100 | > 100 | > 100 | > 100 | – | – | – | – | – | – | – | – | – | –
6 | C/C(=N\N=C1/C(=O)OC(c2ccccc2)=C1C(=O)c1ccccc1)c1ccc([N+](=O)[O-])cc1 | > 100 | > 100 | > 100 | > 100 | > 100 | > 100 | > 100 | > 100 | > 100 | > 100 | – | – | – | – | – | – | – | – | – | –
7 | N#CNC(=NCc1ccccc1)N(Cc1ccccc1)Cc1ccccc1 | > 100 | > 31.6 | 26.7 | > 100 | > 31.6 | > 100 | > 31.6 | > 31.6 | 29.3 | > 31.6 | – | – | – | – | – | – | – | – | – | –
8 | CCCNc1ncnc2c1ncn2C | > 100 | > 100 | > 100 | > 100 | 96.3 | > 100 | > 100 | > 100 | > 100 | > 100 | – | – | – | – | – | – | – | – | – | –
9 | COC1=CC(=O)c2c(c(-c3nc(C)cs3)cn2C)C1=O | 94.6 | 25.3 | 2.88 | 18 | 9.44 | 18.3 | 6.09 | 6.92 | > 91.2 | 9.94 | – | – | – | – | – | – | – | – | – | –
10 | Cc1nc(C)c(C(=O)NNC(=O)C[N+](C)(C)C)cc1C(=O)NNC(=O)C[N+](C)(C)C | > 100 | > 100 | > 100 | > 100 | > 100 | > 100 | > 100 | > 100 | > 100 | > 100 | – | – | – | – | – | – | – | – | – | –
11 | O=C1c2cc(-c3ccccc3)cnc2S(=O)(=O)N1c1ccc(Br)cc1 | > 100 | 32.2 | > 100 | 39.5 | > 100 | > 100 | > 100 | > 100 | > 100 | 87.2 | – | – | – | – | – | – | – | – | – | –
12 | CCNC(=S)NNC(=O)C12CC3CC(CC(C3)C1)C2 | > 100 | > 100 | > 100 | > 100 | > 100 | > 100 | > 100 | > 100 | > 100 | > 100 | – | – | – | – | – | – | – | – | – | –
13 | COC(C)(C)C1(O)CC[C@@H](C)CC1=O (stereo not given in full) | > 100 | > 100 | > 100 | > 100 | > 100 | > 100 | > 100 | > 100 | > 100 | > 100 | – | – | – | – | – | – | – | – | – | –
14 | COc1ccc(N2C(=O)CC(=O)N(NC(=O)C(C)Oc3ccccc3C)C2=S)cc1 (stereo not given) | > 100 | > 100 | > 100 | > 100 | > 100 | > 100 | > 100 | > 100 | > 100 | > 100 | – | – | – | – | – | – | – | – | – | –
15 | NCCCN1c2ccccc2Sc2ccc(Cl)cc21 | > 7 | > 10 | > 5.52 | 4.2 | > 10 | > 10 | > 10 | > 10 | > 10 | > 10 | – | – | – | – | – | – | – | – | – | –
16 | CCCCCCCCCCCC[S+](C)C | 30.2 | 1.52 | 9.25 | 16.8 | 14.1 | 17.6 | 18.6 | 19.7 | 27.2 | 19.4 | – | – | – | – | – | – | – | – | – | –
17 | NC(=O)c1c(NC(=O)c2ccccc2)sc2c1CCC(=O)C2 | 2.93 | > 100 | 3.04 | 11 | 3.57 | > 100 | 2.72 | 5.83 | 2.32 | 3.27 | 0.352 | 3.66 | 1.64 | 2.1 | 0.378 | 4.14 | 1.02 | 0.627 | 0.865 | 0.75

Row | Compound | TGI (SW-620 colon) [µM] | TGI (HOP-62 NSCLC) [µM] | TGI (SK-MEL-5 melanoma) [µM] | TGI (HCC-2998 colon) [µM] | TGI (HL-60(TB) leukemia) [µM] | TGI (DU-145 prostate) [µM] | TGI (OVCAR-3 ovarian) [µM] | TGI (NCI-H23 lung) [µM] | TGI (UO-31 renal) [µM] | TGI (SF-539 CNS) [µM] | GI50 (SW-620 colon) [µM] | GI50 (HOP-62 NSCLC) [µM] | GI50 (SK-MEL-5 melanoma) [µM] | GI50 (HCC-2998 colon) [µM] | GI50 (HL-60(TB) leukemia) [µM] | GI50 (DU-145 prostate) [µM] | GI50 (OVCAR-3 ovarian) [µM] | GI50 (NCI-H23 lung) [µM] | GI50 (UO-31 renal) [µM] | GI50 (SF-539 CNS) [µM]
18 | CC1(C)OC[C@@H](O)[C@H](C#N)CO1 | > 100 | > 100 | > 100 | > 100 | > 100 | > 100 | > 100 | > 100 | > 100 | > 100 | – | – | – | – | – | – | – | – | – | –
19 | Cc1c2cc[n+](C)c(C)c2cc2c1[nH]c1ccccc12 | > 95.1 | 37.5 | 11 | 32.2 | 82.1 | > 78 | 57.7 | 16.3 | > 100 | 46.2 | – | – | – | – | – | – | – | – | – | –
20 | Clc1ccc(-c2nnc3sc4nc5ccccc5c-4nn23)c(Cl)c1 | > 100 | > 100 | > 100 | > 100 | > 100 | > 100 | > 100 | > 100 | > 100 | > 100 | – | – | – | – | – | – | – | – | – | –
21 | COc1ccc(C2OC(c3ccncc3)=NN2C)cc1F (stereo not given) | > 100 | > 100 | > 100 | > 100 | > 100 | > 100 | > 100 | > 100 | > 100 | > 100 | – | – | – | – | – | – | – | – | – | –
22 | CCCCCC#CCOC(=O)C(=[N+]=[N-])P(=O)(c1ccccc1)c1ccccc1 | > 10 | > 10 | > 10 | > 10 | > 10 | > 10 | > 10 | > 10 | > 10 | > 10 | – | – | – | – | – | – | – | – | – | –
23 | C=CCn1c(=O)c(C(=O)Nc2nc(C34CC5CC(CC(C5)C3)C4)cs2)c(O)c2ccccc21 | > 100 | > 100 | > 100 | > 100 | 65.6 | > 100 | > 100 | > 100 | > 100 | > 100 | – | – | – | – | – | – | – | – | – | –
24 | COc1cc(OC)cc(C(=O)CC(=O)c2cc(OC)cc(OC)c2)c1 | > 100 | > 100 | > 100 | > 100 | > 100 | > 100 | > 100 | > 100 | > 100 | > 100 | – | – | – | – | – | – | – | – | – | –
25 | Cc1nc(C)c(N2CCN([N+](=O)[O-])CC2)c(=O)[nH]1 | > 100 | > 100 | > 100 | > 100 | > 100 | > 100 | > 100 | > 100 | > 100 | > 100 | – | – | – | – | – | – | – | – | – | –
26 | NS(=O)(=O)c1ccc(NC(=S)/N=C/C2=C(O)c3ccccc3C2=O)cc1 | > 100 | > 100 | > 100 | > 100 | > 100 | > 100 | > 100 | > 100 | 85.6 | > 100 | – | – | – | – | – | – | – | – | – | –
27 | Cn1c(SCc2ccc(F)cc2)nnc1C12CC3CC(CC(C3)C1)C2 | > 100 | > 100 | 26.6 | > 100 | 28.6 | > 100 | 85.5 | > 100 | > 100 | 65.1 | – | – | – | – | – | – | – | – | – | –
28 | COC(=O)/C=C\C(C#N)(C#N)N=Cc1ccc(C)cc1 | > 27.9 | 34.2 | 26.9 | 35.3 | 8.14 | 15.7 | 5.82 | 15.1 | 7.16 | 10.9 | – | – | – | – | – | – | – | – | – | –
29 | C=C1C(=O)CC2C1CC(=O)/C(C)=C/CCC(C)(O)C2O (stereo not given) | > 33.7 | 43.7 | 17.6 | 17.1 | 10.1 | 19.7 | 17 | 20.6 | 17.3 | > 24.4 | – | – | – | – | – | – | – | – | – | –
30 | O=C1NC(N2CCOCC2)=N/C1=C\c1ccco1 | > 100 | > 100 | > 100 | > 100 | > 100 | > 100 | > 100 | > 100 | > 100 | > 100 | – | – | – | – | – | – | – | – | – | –
31 | O=S(=O)(O)C(CO)c1ccccc1 (stereo not given) (tested in a mixture with another compound) | > 100 | > 100 | > 100 | > 100 | > 44.5 | > 100 | > 100 | > 100 | > 100 | > 100 | – | – | – | – | – | – | – | – | – | –
32 | Oc1cc(Cl)cc2cccnc12 | 19.7 | > 100 | 13.4 | > 70 | 0.727 | > 89.7 | 3.18 | 33.4 | > 100 | > 67 | – | – | – | – | – | – | – | – | – | –
33 | COc1ccc(-c2nc(SCC(=O)NNC(=S)Nc3ccccc3)[nH]c2-c2ccc(OC)cc2)cc1 | 91.2 | 46.1 | 28.4 | 29.3 | 29.9 | > 100 | 34.5 | 39.3 | > 100 | 30.9 | – | – | – | – | – | – | – | – | – | –
